Measured values as given in patent US7674787B2, “Conformationally constrained Smac mimetics and the uses thereof” (The Regents of the University of Michigan, priority 2004, dated 2010).
Blank lines part the entries; values can stand above or below the molecule they belong to.

Columns and labels:
[1] = tested on: MDA-435, MDA-468, and T47D cells; assay: Cell growth inhibition, WST-8, breast cancer cell lines; type: cell-based, human; conditions: Homo sapiens, 120 h, 5 days, each of the three cell lines
Description: To test the effect of Smac mimetics by themselves in inhibition of cell growth in human cancer cells, SH-102 was administered to three different breast cancer cell lines. MDA-435, MDA-468, and T47D cells were seeded in 96-well plates with increasing concentrations of SH-102, Smac8, or Smac8-C. The cells were then incubated at 37° C. with 5% CO2 for 5 days, followed by detection of cell viability with WST-8 (10% Dojindo solution in IMEM with 10% FCS). OD values at 450 nm with reference at 650 nm were read approximately 3 hours later. Untreated cells were used as 100% growth. […]. […] (FIGS. 26A-26C).

Jurkat-XIAP cells = assay: Sub-G1 apoptosis in Jurkat cells overexpressing XIAP
PC-3 cells = assay: Apoptosis by Annexin V-FITC staining in PC-3 cells; type: cell-based, human
Excerpt: SH-97, a peptido-mimetic in which the side chain of alanine has been replaced with an ethyl group and the isoleucine has been replaced with a diphenylmethyl group, was used to test the basic premise. Of note, SH-97 still has two natural amino acids (valine and proline) and one natural peptide bond. […] The experiment used PC-3 cells which express high levels of XIAP and cIAP-1/2 proteins and cisplatin (CDDP) as the chemotherapeutic drug. CDDP is a DNA damaging agent and can effectively induce apoptosis in PC-3 cells and is also a clinically used chemotherapeutic drug for prostate cancer.
PC-3 cells were treated with CDDP, Smac peptides and mimetics alone or in combination for 42 hours and apoptosis was analyzed by Annexin V-FITC staining. […] Combination of 25 μM CDDP and 10 μM or 25 μM SH-97 induced 29.3%±1.9% and 35.8%±0.4% apoptosis over control cells, respectively (FIG. 18A).
Similar experiments were performed with SH-102 (Table 5). PC-3 cells in 6-well plates were treated with SH-102 and CDDP, alone or in combination, for 42 hours. Cells were collected and stained with Annexin V-FITC and propidium iodide. The fluorescence of Annexin V-FITC and propidium iodide of individual cells was analyzed by flow cytometry. […] Combination of 25 μM CDDP and 10 μM SH-102 induced 32% apoptosis over control cells (FIG. 19).
The same experiment was performed using TAXOTERE (docetaxel), another cancer chemotherapeutic drug. PC-3 cells in 6-well plates were treated with SH-102 and TAXOTERE, alone or in combination, for 42 hours. Cells were collected and stained with Annexin V-FITC and propidium iodide. The fluorescence of Annexin V-FITC and propidium iodide of individual cells was analyzed by flow cytometry. […] Combination of 10 μM TAXOTERE and 10 μM SH-102 induced about 18% apoptosis over control cells (FIG. 21).

MDA-231 cells = assay: Apoptosis by Annexin V-FITC/propidium iodide in MDA-231 cells; type: cell-based, human
Description: Similar experiments were performed using the breast cancer cell line MDA-231. MDA-231 cells in 6-well plates were treated with SH-102 and CDDP, alone or in combination, for 42 hours. Cells were collected and stained with Annexin V-FITC and propidium iodide. The fluorescence of Annexin V-FITC and propidium iodide of individual cells was analyzed by flow cytometry. 25 μM and 50 μM CDDP induced about 25% and 42% of MDA-231 cells to undergo apoptosis as compared to control cells, respectively (FIG. 22). […] Combination of 25 and 50 μM CDDP and 10 μM SH-102 induced about 35% and 75% apoptosis over control cells, respectively (FIG. 22).

Jurkat-Bir3 cells = assay: Sub-G1 apoptosis in Jurkat cells expressing XIAP-Bir3
[2] = tested on: normal prostate epithelial cells; assay: Cell growth inhibition, WST-8, normal cells; type: cell-based; conditions: 5 days
Description: (§1) To test the effect of [6.3.0] Smac mimetics in inhibition of cell growth in human cancer cells, compounds were administered to several different cancer cell lines. BT-549, MDA-MB-231 (subclone 2LMP), and MDA-MB-231 (ATCC) human breast cancer cells and PC-3 human prostate cancer cells were seeded in 96-well plates with increasing concentrations of the compounds. To assay for the selectivity of the compounds for cancer cells, normal prostate epithelial cells were also tested. The cells were then incubated at 37° C. with 5% CO2 for 5 days, followed by detection of cell viability with WST-8. Untreated cells were used as 100% growth. The compounds tested were SH-109, SH-122 and SH-123 (Table 6).

[3] = tested on: BT-549, MDA-MB-231 (subclone 2LMP), MDA-MB-231 (ATCC) and PC-3 cells; assay: Cell growth inhibition, WST-8, cancer cell lines; type: cell-based, human
Description: as §1

[4] = tested on: MDA-MB-231 (subclone 2LMP) breast cancer cells; assay: Cell growth inhibition in combination with TRAIL, WST-8; type: cell-based, human; conditions: 4 days
Description: To test the ability of SH-122 to enhance the cell growth inhibitory activity of TRAIL, MDA-MB-231 (subclone 2LMP) breast cancer cells were seeded in 96-well plates with various concentrations of TRAIL in the presence of increasing amounts of SH-122. The cells were then incubated at 37° C. with 5% CO2 for 4 days, followed by detection of cell viability with WST-8.

XIAP BIR3 = XIAP BIR3 (Homo sapiens, UniProt P98170); assay: biochemical
XIAP BIR3, sequence (P98170 241-356): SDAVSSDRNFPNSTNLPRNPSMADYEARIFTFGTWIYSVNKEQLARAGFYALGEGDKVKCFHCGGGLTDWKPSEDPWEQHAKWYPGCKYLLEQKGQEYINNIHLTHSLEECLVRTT

Jurkat-Vec cells = assay: Sub-G1 apoptosis in Jurkat cells with control vector; type: cell-based, human; conditions: 10 μM etoposide alone, 15 hours
Description: Data were analyzed to calculate the percentage of sub-G1 cells (apoptotic cells) using CellQuest software (Becton Dickinson).

XIAP = XIAP (Homo sapiens, UniProt P98170); conditions: background statement; cited from earlier work
XIAP, sequence (P98170 whole entry): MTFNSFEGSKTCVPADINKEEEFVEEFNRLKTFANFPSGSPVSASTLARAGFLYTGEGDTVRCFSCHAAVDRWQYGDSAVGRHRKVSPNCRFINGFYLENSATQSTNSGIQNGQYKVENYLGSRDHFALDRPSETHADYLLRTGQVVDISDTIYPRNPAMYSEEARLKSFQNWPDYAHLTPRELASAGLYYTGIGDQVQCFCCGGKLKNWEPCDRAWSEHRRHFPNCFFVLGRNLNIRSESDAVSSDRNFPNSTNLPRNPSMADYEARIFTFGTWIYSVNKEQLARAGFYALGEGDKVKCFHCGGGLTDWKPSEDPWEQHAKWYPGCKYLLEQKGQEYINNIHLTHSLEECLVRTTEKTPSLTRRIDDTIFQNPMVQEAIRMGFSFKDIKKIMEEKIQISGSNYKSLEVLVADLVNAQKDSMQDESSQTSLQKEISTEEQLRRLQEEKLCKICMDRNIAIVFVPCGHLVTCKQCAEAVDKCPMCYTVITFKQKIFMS

IC50 [1]: 30000 to 70000 nM
Molecule: CC[C@H](N)C(=O)N[C@H]1CCC[C@H]2CC[C@@H](C(=O)NC(c3ccccc3)c3ccccc3)N2C1=O [Compound 34]
effectiveness in overcoming protective effect of XIAP (Jurkat-XIAP cells; 10 μM SH-102 compared with 50 μM Smac8-C): at least as effective as 50 μM Smac8-C | apoptosis (sub-G1) (Jurkat-XIAP cells; 10 μM SH-102 in combination with etoposide, 15 hours): about 15% | apoptosis over control cells (PC-3 cells; 10 μM TAXOTERE + 10 μM SH-102, 42 hours): about 18% | apoptosis over control cells (PC-3 cells; 25 μM CDDP + 10 μM compound, 42 hours): 32% | apoptosis compared to untreated cancer cells (PC-3 cells; compound alone up to 100 μM, 42 hours): did not induce significantly more apoptosis | ability to sensitize cells to CDDP (MDA-231 cells; 10 μM SH-102 compared with 100 μM pSmac8-C): as great as that of 100 μM pSmac8-C | apoptosis over control cells (MDA-231 cells; 25 μM CDDP + 10 μM SH-102, 42 hours): about 35% | apoptosis over control cells (MDA-231 cells; 50 μM CDDP + 10 μM SH-102, 42 hours): ~75% | apoptosis (Jurkat-Bir3 cells; etoposide + 10 μM SH-102): about 25% | apoptosis (Jurkat-Bir3 cells; etoposide + 20 μM SH-102): ~30%

decrease of the IC50 of TRAIL ([4]; 250 nM SH-122 with TRAIL): approximately ten-fold | Ki (XIAP BIR3): 30 nM
Molecule: CC[C@H](NC)C(=O)N[C@H]1CCCC[C@H]2CC[C@@H](C(=O)NC(c3ccccc3)c3ccccc3)N2C1=O [SH-122]
cell growth inhibition (in words) [2]: no cell growth inhibition effect | cell growth inhibition (in words) ([3]; 5 days, WST-8, each of the cancer cell lines): inhibited the cell growth | rank of potency in cell growth inhibition ([3]; among SH-109, SH-122, SH-123, each cell line): most potent

Molecule: COc1cc([C@@H]2c3cc4c(cc3[C@@H](O[C@@H]3O[C@@H]5CO[C@@H](C)O[C@H]5[C@H](O)[C@H]3O)[C@H]3COC(=O)[C@H]23)OCO4)cc(OC)c1O [etoposide, reference compound]
apoptotic cells (sub-G1) (Jurkat-Vec cells): about 50% | apoptotic cells (sub-G1) (Jurkat-XIAP cells; 10 μM etoposide alone, 15 hours): about 10% | apoptosis (Jurkat-Bir3 cells; 20 μM etoposide alone): about 18%

B1: mature Smac protein: mature Smac protein, endogenous inhibitor of XIAP (protein, UniProt Q9NR28 22-239, looked up)
Diablo IAP-binding …: LCVPVVANFKKRCFSELIRPWHKTVTIGFGVTLCAVPIAQKSEPHSLSSEALMRRAVSLVTDSTSTFLSQTTYALIEAITEYTKAVYTLTSLYRQYTSLLGKMNSEEEDEVWQVIIGARAEMTSKHQEYLKLETTWMTAVGLSEMAAEAAYQTGADQASITARNHIQLVKLQVEEVHQLSRKAETKLAEAQIEELRQKTQEEGEERAESEQEAYLRED
Kd (XIAP): 420 nM

B2: TRAIL: tumor necrosis factor-related apoptosis-inducing ligand (protein, UniProt P50591 1-281, looked up)
Tumor necrosis factor ligand …: MAMMEVQGGPSLGQTCVLIVIFTVLLQSLCVAVTYVYFTNELKQMQDKYSKSGIACFLKEDDSYWDPNDEESMNSPCWQVKWQLRQLVRKMILRTSEETISTVQEKQQNISPLVRERGPQRVAAHITGTRGRSNTLSSPNSKNEKALGRKINSWESSRSGHSFLSNLHLRNGELVIHEKGFYYIYSQTYFRFQEEIKENTKNDKQMVQYIYKYTSYPDPILLMKSARNSCWSKDAEYGLYSIYQGGIFELKENDRIFVSVTNEHLIDMDHEASFFGAFLVG
cell growth inhibition (in words) ([4]; TRAIL by itself): inhibited the growth of the cells in a dose dependent fashion
